Like-named read-outs stand apart in the source and are kept apart here.
Assays:
[1] = test system: sows suffering from endometritis; assay: Efficacy on endometritis in postpartum sows; format: in vivo, pig; settings: uterine perfusion 10 mg/kg once a day for 7 days; 30 sows
Method: Sows suffering from endometritis in 5 different pig farms were selected, 30 cases in each farm, 150 cases in total, were randomly divided into groups, and a non-treatment control was set up, and the sick pigs in each experimental group were perfused into the uterus. Agents, the main components of the uterine perfusion for treatment groups 1-4 were Compound 1, Compound 2, Compound 3, and Compound 4, respectively, at a dose of 10 mg/kg, and the control group was given an equal volume of normal saline. The frequency of administration is once a day for 7 consecutive days.

TA102 = assay: Salmonella typhimurium reverse mutation assay, plate incorporation, TA102; settings: positive control, TA102 −S9, 1.0 μL/100 μL dish
Method: (§1) Test strains: A set of standard test strains of TA97, TA98, TA100 and TA102 were provided by the Jiangsu Provincial Center for Disease Control and Prevention, and stored at −80° C. The test bacteria were cultured in a 37° C. water bath with shaking for 24 hours and stored at 4° C.
(§2) Enrichment culture: The main plate or the frozen-preserved strain culture was inoculated into nutrient broth, and cultivated for 10 hours at 37° C. with shaking (100 times/min). The strain culture should be more than 1˜2×10^9 viable bacteria per milliliter.
(§3) According to the physicochemical properties of the test article, the Compound 2 was prepared before test: 0.1 g of Compound 2 white powder was under UV sterilization for 2 h before test, and dissolved in 10 mL of dimethyl sulfoxide (DMSO), and then diluted to the desired concentration for the use (fresh preparation). […]
(§4) Preparation of test agent solution: 0.1 mL of test agent solution was added to each dish, and the highest concentration and volume of test agent solution to be prepared were determined according to the set maximum test dose of 10 mg/mL. The amount of the test agent to be weighed was calculated when the solution was prepared. […]
(§5) Judgment and evaluation of results: The results of each test were sorted out, and the number of strains turned into colonies was expressed as (x±SD)/dish. […]

sperm = settings: oral once a day 5 days; for Total number of abnormal sperm / abnormal sperm: Amorphous / abnormal sperm: Banana shape / abnormal sperm: Double head / abnormal sperm: Double tail / abnormal sperm: Fat head / abnormal sperm: Fold tail / abnormal sperm: No hook: Day 35, 10000 sperm; for Number of Abnormal sperm (x ± SD) / Sperm deformity: Day 35, n = 10
Method: Experimental animals: 60 clean-grade healthy male ICR mice having the average weight of 18-20 g, purchased from the Comparative Medicine Center of Yangzhou University.
Reagents: Test agent, Compound 2, provided by Guangzhou Insighter Biotechnology Co., Ltd., was prepared into a suspension of the required concentration with 1.0% sodium carboxymethyl cellulose before use; the mutagenic positive control article of cyclophosphamide with the content of 99.00%; other reagents include sodium chloride, methanol, and eosin, all of analytical grade; self-prepared physiological saline; self-prepared eosin aqueous solution (2%).
The test article, Compound 2 was diluted with 1.0% sodium carboxymethyl cellulose as a solvent, and it was given by oral in different concentrations and the same volume. There is also a positive control and a negative (solvent) control. The cyclophosphamide was selected as the positive control (40 mg/kg).
Grouping of experimental animals: 60 healthy male mice were individually weighed, labeled and numbered, and they were divided into 5 groups with 12 mice in each group using a completely random method. It was ensured that 10 animals in each group survive for sampling and film making after administration.
Administration: The administration method is carried out according to GB15193.7-2003. The test group, the negative control and the positive control are all given the test article by oral once a day for 5 consecutive days. The weight of the mouse for each administration was weighed, and the volume of the test article that each mouse should administer was calculated according to the requirements of the mouse 0.2 mL/10 g b.w.
Sampling and sample preparation: The mice were sacrificed by cervical dislocation on the Day 35 after the first administration, and sampling and film making were performed. 10 mice were sampled in each dose group. The abdominal cavity was cut, the epididymis on both sides were separated and extracted, and put in a petri dish containing 2 mL of normal saline; The mice were longitudinally cut with ophthalmological scissors for 2 times, the normal saline in it was pipetted with a straw for several times, and let stand for 3 min; the tissue fragments were filtered with a 4-layer of lens cleaning paper, 1 drop of the filtrate was drawn onto the glass slide, the slide was pushed with 4 slides per mouse; the slide in the air dried naturally, and fixed with methanol for 10 minutes, and dried; stained with 2% eosin for 1 h, the dye solution was gently washed off with water, and it was dried naturally before microscopic examination.
Data collation and analysis: The number of normal sperm, the number of abnormal sperm and the number of various types of abnormal sperm were read and counted in each dose group of mice. The sperm abnormality rate (%) of mice in each dose group and the percentage (%) of various types of abnormal sperm were calculated, and the standard deviation of the sperm abnormality rate of mice was also calculated in each dose group. Calculation as follows:
The sperm abnormality rate of mice in each dose group was statistically compared with the sperm abnormality rate of mice in the negative (solvent) control. The experimental data was processed by SPSS 11.0 statistical software, and the analysis results were expressed as x±SD, and the incidence of sperm abnormalities was statistically processed according to the X^2 (α=0.05).
If the dose of the test group has caused the animal to die, while the sperm abnormality has not increased, the result can be judged to be negative.

TA98 = assay: Salmonella typhimurium reverse mutation assay, plate incorporation, TA98; settings: positive control, TA98 −S9, 50 μg/100 μL dish
Method: as §1, §2, §3, §4, §5

TA97 = assay: Salmonella typhimurium reverse mutation assay, plate incorporation, TA97; settings: positive control, TA97 −S9, 50 μg/100 μL dish
Method: as §1, §2, §3, §4, §5

N=C(N/N=C/c1ccc(OCc2ccccc2)cc1)N/N=C/c1ccc(OCc2ccccc2)cc1 [Compound 3]
Cure rate [1]: 90.0% | Treatment effects: sows cured [1]: 25 sows were cured, | Treatment effects: sows improved in symptoms [1]: 2 sows improved

COC(=O)c1ccc(/C=N/NC(=N)N/N=C/c2ccc(C(=O)OC)cc2)cc1 [Compound 4]
Cure rate [1]: 100% | Treatment effects: sows cured [1]: 25 sows were cured, | Treatment effects: sows improved in symptoms [1]: 5 sows improved

N=C(N/N=C/c1ccc([N+](=O)[O-])cc1)N/N=C/c1ccc([N+](=O)[O-])cc1 [Compound 1]
Cure rate [1]: 93.3% | Treatment effects: sows cured [1]: 27 sows were cured, | Treatment effects: sows improved in symptoms [1]: 1 sow improved sows

COS(C)(=O)=O [Methyl Methanesulfonate, methyl methanesulfonate, reference compound]
reverting colonies per dish (x ± SD) (TA102; First): 392.67 ± 12.86 | reverting colonies per dish (x ± SD) (TA102; Second): >2000

isopropoxyphenylguanidine [Compound 2]
Total number of abnormal sperm (sperm; high 500 mg/kg): 224 | abnormal sperm: Amorphous (sperm; high 500 mg/kg): 106 | abnormal sperm: Banana shape (sperm; high 500 mg/kg): 22 | abnormal sperm: Double head (sperm; high 500 mg/kg): 5 | abnormal sperm: Double tail (sperm; high 500 mg/kg): 9 | abnormal sperm: Fat head (sperm; high 500 mg/kg): 10 | abnormal sperm: Fold tail (sperm; high 500 mg/kg): 9 | abnormal sperm: No hook (sperm; high 500 mg/kg): 63 | Number of Abnormal sperm (x ± SD) (sperm; high 500 mg/kg): 22.40 ± 1.84 | Sperm deformity (sperm; high 500 mg/kg): 2.17 ± 0.16% | Total number of abnormal sperm (sperm; low 125 mg/kg): 223 | abnormal sperm: Amorphous (sperm; low 125 mg/kg): 118 | abnormal sperm: Banana shape (sperm; low 125 mg/kg): 16 | abnormal sperm: Double head (sperm; low 125 mg/kg): 4 | abnormal sperm: Double tail (sperm; low 125 mg/kg): 6 | abnormal sperm: Fat head (sperm; low 125 mg/kg): 5 | abnormal sperm: Fold tail (sperm; low 125 mg/kg): 5 | abnormal sperm: No hook (sperm; low 125 mg/kg): 69 | Number of Abnormal sperm (x ± SD) (sperm; low 125 mg/kg): 22.30 ± 1.70 | Sperm deformity (sperm; low 125 mg/kg): 2.15 ± 0.16% | Total number of abnormal sperm (sperm; medium 250 mg/kg): 221 | abnormal sperm: Amorphous (sperm; medium 250 mg/kg): 111 | abnormal sperm: Banana shape (sperm; medium 250 mg/kg): 21 | abnormal sperm: Double head (sperm; medium 250 mg/kg): 5 | abnormal sperm: Double tail (sperm; medium 250 mg/kg): 7 | abnormal sperm: Fat head (sperm; medium 250 mg/kg): 7 | abnormal sperm: Fold tail (sperm; medium 250 mg/kg): 5 | abnormal sperm: No hook (sperm; medium 250 mg/kg): 65 | Number of Abnormal sperm (x ± SD) (sperm; medium 250 mg/kg): 22.10 ± 1.37 | Sperm deformity (sperm; medium 250 mg/kg): 2.14 ± 0.14%

CN(C)c1ccc(N=NS(=O)(=O)[O-])cc1.[Na+] [Dixon, reference compound]
reverting colonies per dish (x ± SD) (TA98; First): 932.00 ± 57.17 | reverting colonies per dish (x ± SD) (TA98; Second): >2000 | reverting colonies per dish (x ± SD) (TA97; First): >2000 | reverting colonies per dish (x ± SD) (TA97; Second): >2000
